Test results published in the supplement of paper PMC10307832.

Key:
Assay in all cases: relative viability (nuclei count vs DMSO), 5 days (fraction); higher = more cells survive
[1] = compound: C1=CC2=NC=CN=C2C=C1/C=C/3\C(=O)NC(=O)S3 + CC(=O)c1c(C)c2cnc(Nc3ccc(N4CCNCC4)cn3)nc2n(C2CCCC2)c1=O [Palbociclib] (partner 0.5 µM)
In short: (§1)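 Dosing by pin tool came one day after lung cancer cell lines were seeded in 1536-well plates, using either one drug or a fixed anchor-drug dose plus five library-drug doses (not always all listed) in √10 steps. After 5 days, nuclei were counted on 4× images. Relative viability is treated-well nuclei count divided by vehicle-well nuclei count, and values are medians of duplicate plates.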

[2] = compound: C1=CC2=NC=CN=C2C=C1/C=C/3\C(=O)NC(=O)S3 + CS(=O)(=O)CCNCc1ccc(-c2ccc3ncnc(Nc4ccc(OCc5cccc(F)c5)c(Cl)c4)c3c2)o1 [Lapatinib] (partner 2 µM)
In short: as §1

BGJ398 + Luminespib = compound: CCN1CCN(c2ccc(Nc3cc(N(C)C(=O)Nc4c(Cl)c(OC)cc(OC)c4Cl)ncn3)cc2)CC1 [BGJ398] + CCNC(=O)c1noc(-c2cc(C(C)C)c(O)cc2O)c1-c1ccc(CN2CCOCC2)cc1 [Luminespib] (partner 0.01 µM)
In short: as §1

BGJ398 + Tozasertib = compound: CCN1CCN(c2ccc(Nc3cc(N(C)C(=O)Nc4c(Cl)c(OC)cc(OC)c4Cl)ncn3)cc2)CC1 [BGJ398] + Cc1cc(Nc2cc(N3CCN(C)CC3)nc(Sc3ccc(NC(=O)C4CC4)cc3)n2)n[nH]1 [Tozasertib] (partner 0.1 µM)
In short: as §1

Cell Line: UMC-11
- relative viability ([1]; first compound 0.02 µM): 0.341
- relative viability ([1]; first compound 0.06325 µM): 0.328
- relative viability ([1]; first compound 0.2 µM): 0.33
- relative viability ([1]; first compound 0.6325 µM): 0.328
- relative viability ([1]; first compound 2 µM): 0.414
- relative viability ([2]; first compound 0.02 µM): 1.02
- relative viability ([2]; first compound 0.06325 µM): 1.15
- relative viability ([2]; first compound 0.2 µM): 1.19
- relative viability ([2]; first compound 0.6325 µM): 1.02
- relative viability ([2]; first compound 2 µM): 1.37
- relative viability (BGJ398 + Luminespib; first compound 0.01 µM): 1.02
- relative viability (BGJ398 + Luminespib; first compound 0.03162 µM): 1.08
- relative viability (BGJ398 + Luminespib; first compound 0.1 µM): 0.994
- relative viability (BGJ398 + Luminespib; first compound 0.3162 µM): 0.984
- relative viability (BGJ398 + Luminespib; first compound 1 µM): 1.01
- relative viability (BGJ398 + Tozasertib; first compound 0.01 µM): 0.2
- relative viability (BGJ398 + Tozasertib; first compound 0.03162 µM): 0.202
- relative viability (BGJ398 + Tozasertib; first compound 0.1 µM): 0.207
- relative viability (BGJ398 + Tozasertib; first compound 0.3162 µM): 0.206
- relative viability (BGJ398 + Tozasertib; first compound 1 µM): 0.235
